The values below come from article PMC6694100, “The complex of ferric-enterobactin with its transporter from Pseudomonas aeruginosa suggests a two-site model” (Nature Communications, 2019).

Several values for one entry are separate records, joined by “and”; a condition that tells them apart may be missing. Equal values may be shown once. Entries after “also recorded” stand apart in the source; their conditions may differ. Read-outs that look alike come from different tables or passages of the source.

In one assay the test system is wild-type PAO1 strain. Nature of the assay: 55Fe-enterobactin binding and uptake assay, PAO1. In kind it is cell-based, Pseudomonas aeruginosa. As to conditions: replicates, Figure 6b-c, listed as 55Fe-enterobactin. How it is done:
Fig. 6 Effects of PfeA mutation in vivo. a Analysis of changes in the transcription of pfeA gene. PAO1 strain, its corresponding deletion mutant ∆pfeA and deletion mutants carrying the expression plasmid of PfeA wild-type (∆pfeA(pMMBpfeA) or the R480A-Q482A mutant (∆pfeA(pMMBpfeAR480AQ482A)) were grown in CAA medium supplemented with 10 µM enterobactin. The data were normalised relative to the reference gene uvrD, and are representative of three independent experiments performed in triplicate (n = 3). The results are given as a ratio between the values obtained for ∆pfeA, ∆pfeA(pMMBpfeA) and ∆pfeA(pMMBpfeAR480AQ482A) over those obtained for the PAO1 strain. b ^55Fe-enterobactin binding at the bacterial surface. Cells were grown as in panel a, and were incubated for 15 min with 200 µM CCCP before initiation of transport assays by the addition of 500 nM ^55Fe-enterobactin. After 30 min incubation, the radioactivity accumulated in the bacteria was counted. The results are expressed as pmol of ^55Fe-enterobactin bound per ml of cells at an OD600 of 1. The experiments have been repeated three times. c ^55Fe-enterobactin binding and uptake. Cells were grown as in panel a, and were incubated with or without 200 µM CCCP before initiation of transport assays by the addition of 500 nM ^55Fe-enterobactin. After 30 min incubations, the radioactivity accumulated in the bacteria was counted. The results are expressed as pmol of ^55Fe-enterobactin bound and transported per ml of cells at an OD600 of 1. The experiments have been repeated three times
The complex was prepared at ^55Fe concentrations of 50 μM, with a siderophore:iron (mol:mol) ratio of 20:1. P. aeruginosa strains were first grown overnight at 30 °C in LB broth, and were then washed, resuspended and cultured overnight at 30 °C in iron-deficient CAA medium (casamino acid medium, composition: 5 g.l^−1 low-iron CAA (Difco), 1.46 g.l^−1 K2HPO4 3H2O, 0.25 g.l^−1 MgSO4 7H2O) and in the presence of 10 µM enterobactin to induce the expression of PfeA. CAA is a highly iron-restricted medium with iron concentrations of 20 nM[59]. Afterwards bacteria were washed with 50 mM Tris-HCl pH 8.0, and diluted to an OD600 of 1. Cells solutions were divided in two, one batch being treated with 200 μM CCCP. […] After 30 min of incubations, cells were centrifuged, and the radioactivity associated to the bacteria was monitored in the cell pellets. For the cells treated with CCCP, the radioactivity in the cell pellets corresponds to the binding of ^55Fe-enterobactin to P. aeruginosa cell surface, since no uptake occurs. In the absence of CCCP, the radioactivity associated to the cells corresponds to ^55Fe-enterobactin binding to the cell surface and the uptake into the bacteria.

In another assay the target is T1, PfeA wild-type (Pseudomonas aeruginosa, UniProt Q05098).
T1 construct: His7 tag with TEV protease site (N, cleaved yes); made in house; host or cells: E. coli C43 (DE3)
T1 sequence (Q05098 26-746): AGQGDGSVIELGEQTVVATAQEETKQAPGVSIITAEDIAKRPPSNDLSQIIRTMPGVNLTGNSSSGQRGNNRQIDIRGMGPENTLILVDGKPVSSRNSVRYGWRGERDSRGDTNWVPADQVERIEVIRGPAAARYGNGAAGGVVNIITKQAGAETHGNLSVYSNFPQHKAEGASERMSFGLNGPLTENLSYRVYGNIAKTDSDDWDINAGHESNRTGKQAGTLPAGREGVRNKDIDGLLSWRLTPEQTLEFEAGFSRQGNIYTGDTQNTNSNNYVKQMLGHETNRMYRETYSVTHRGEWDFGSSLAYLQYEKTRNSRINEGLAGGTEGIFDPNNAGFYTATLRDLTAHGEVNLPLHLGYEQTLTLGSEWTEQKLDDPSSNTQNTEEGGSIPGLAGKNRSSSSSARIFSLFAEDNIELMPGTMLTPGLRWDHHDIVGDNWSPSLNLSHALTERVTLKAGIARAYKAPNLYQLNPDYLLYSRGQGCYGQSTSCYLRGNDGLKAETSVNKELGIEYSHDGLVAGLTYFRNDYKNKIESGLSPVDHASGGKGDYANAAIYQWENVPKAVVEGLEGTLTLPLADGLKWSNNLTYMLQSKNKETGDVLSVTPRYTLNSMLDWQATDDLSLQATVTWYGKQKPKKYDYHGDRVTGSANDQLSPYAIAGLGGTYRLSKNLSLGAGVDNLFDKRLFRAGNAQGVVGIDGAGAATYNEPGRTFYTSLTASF
Nature of the assay: isothermal titration calorimetry, PfeA wild-type. Format: binding. As to conditions: ITC reverse titration (PfeA into Fe^3+-enterobactin), estimate. How it is done:
(§1) The sites have different affinities for the ligand, one with high affinity and highly favourable enthalpy and the second with lower affinity and unfavourable enthalpy. Although the biphasic nature of the isotherm was reproducible, the numerical values varied. For K1, the binding constant was 20 to 100 nM; for K2 […]. […] The weaker binding at the […] site is consistent with the higher B-factor of the Fe^3+-enterobactin molecule observed in the complex crystal structures.
(§2) Affinities of PfeA wild-type and mutants for Fe^3+-enterobactin were measured by isothermal titration calorimetry using a VP-ITC instrument (GE Healthcare) at 25 °C. Titrations were performed using 57 × 5 μl injections of Fe^3+-enterobactin (70–55 μM) into 10 μM protein. The heats of dilution measured from injection of the ligands into the buffer were subtracted, and titration curves were fitted using AFFINImeter software with a two-site binding model. Concentrations of Fe^3+-enterobactin solutions were verified with UV/vis spectrophotometry using a published molar extinction coefficient of ε495 = 5600 M^−1 cm^−1. […] Reverse titration has been also performed (PfeA into Fe^3+-enterobactin), but data suffer from high heats of dilution in the beginning of the blank titration of PfeA into the buffer giving estimates of K1 = 95 nM and K2 = 4.5 μM for the wild-type.

The next assay concerns the target T2, PfeA R480A mutant (Pseudomonas aeruginosa, UniProt Q05098, R505A).
T2 construct: His7 tag with TEV protease site (N, cleaved yes); made in house; host or cells: E. coli C43 (DE3)
The assay is described as follows: isothermal titration calorimetry, PfeA R480A. Format: binding. How it is done:
as §1, §2
For orientation: ITC needs no label: the signal is the heat of the interaction.

In assay [1] the target is T3, PfeA R480A-Q482A double mutant (Pseudomonas aeruginosa, UniProt Q05098, Q507A/R505A).
T3 construct: His7 tag with TEV protease site (N, cleaved yes); made in house; host or cells: E. coli C43 (DE3)
T3 sequence (Q05098 26-746 R505A/Q507A): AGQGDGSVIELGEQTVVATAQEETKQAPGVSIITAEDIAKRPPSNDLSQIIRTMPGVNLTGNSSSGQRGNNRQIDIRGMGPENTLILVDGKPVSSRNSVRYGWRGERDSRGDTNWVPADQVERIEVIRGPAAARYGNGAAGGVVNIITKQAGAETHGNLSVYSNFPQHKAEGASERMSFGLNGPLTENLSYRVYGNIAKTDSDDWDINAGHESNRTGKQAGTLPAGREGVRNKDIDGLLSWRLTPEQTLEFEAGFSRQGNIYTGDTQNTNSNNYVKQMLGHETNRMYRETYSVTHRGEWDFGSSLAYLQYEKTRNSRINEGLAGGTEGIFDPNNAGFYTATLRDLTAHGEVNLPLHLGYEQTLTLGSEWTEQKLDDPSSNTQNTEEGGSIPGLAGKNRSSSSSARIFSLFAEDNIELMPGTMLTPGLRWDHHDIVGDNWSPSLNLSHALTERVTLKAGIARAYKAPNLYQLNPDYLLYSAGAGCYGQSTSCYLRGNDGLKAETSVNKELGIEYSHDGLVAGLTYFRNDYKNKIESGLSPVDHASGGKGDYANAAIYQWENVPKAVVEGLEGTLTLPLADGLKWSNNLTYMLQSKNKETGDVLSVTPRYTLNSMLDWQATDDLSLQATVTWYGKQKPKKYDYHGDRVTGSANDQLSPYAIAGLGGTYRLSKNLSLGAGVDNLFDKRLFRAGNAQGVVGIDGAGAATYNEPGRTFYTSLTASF
Nature of the assay: isothermal titration calorimetry, PfeA R480A-Q482A. In kind it is binding. How it is done: as §1, §2

T2 sequence (Q05098 26-746 R505A): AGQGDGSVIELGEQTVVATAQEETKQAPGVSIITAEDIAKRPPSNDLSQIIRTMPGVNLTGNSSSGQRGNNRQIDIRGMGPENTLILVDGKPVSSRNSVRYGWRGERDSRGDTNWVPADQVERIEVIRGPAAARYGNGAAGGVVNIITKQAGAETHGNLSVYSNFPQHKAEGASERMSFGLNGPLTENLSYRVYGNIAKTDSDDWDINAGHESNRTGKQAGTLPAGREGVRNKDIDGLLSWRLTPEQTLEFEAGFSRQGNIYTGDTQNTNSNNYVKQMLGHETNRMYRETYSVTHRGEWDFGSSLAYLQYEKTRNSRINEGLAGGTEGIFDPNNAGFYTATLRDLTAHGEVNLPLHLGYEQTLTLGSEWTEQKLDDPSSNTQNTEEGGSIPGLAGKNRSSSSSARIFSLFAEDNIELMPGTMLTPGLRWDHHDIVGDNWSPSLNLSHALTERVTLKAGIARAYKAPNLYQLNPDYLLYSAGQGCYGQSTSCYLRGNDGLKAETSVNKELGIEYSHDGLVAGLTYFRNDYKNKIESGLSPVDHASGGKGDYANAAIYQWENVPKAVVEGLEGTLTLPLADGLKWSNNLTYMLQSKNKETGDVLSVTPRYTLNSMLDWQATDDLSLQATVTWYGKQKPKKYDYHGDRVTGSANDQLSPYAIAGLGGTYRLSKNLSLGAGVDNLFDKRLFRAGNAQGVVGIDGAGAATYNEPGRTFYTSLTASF

As to `O=C(N[C@H]1COC(=O)[C@@H](NC(=O)c2cccc([O-])c2[O-])COC(=O)[C@@H](NC(=O)c2cccc([O-])c2[O-])COC1=O)c1cccc([O-])c1[O-].[Fe+3]` [Fe^3+-enterobactin], the “55Fe count, Comptage” value in the assay on wild-type PAO1 strain (PAO1 + CCCP) was 1670 dpm and 1638 dpm and 1498 dpm; in the assay on wild-type PAO1 strain (PAO1, no CCCP), 14331 dpm and 14149 dpm and 16177 dpm. In addition, the 55Fe-enterobactin bound/taken up is 21.426 pmol/ml/DO600 and 21.0154 pmol/ml/DO600 and 19.2192 pmol/ml/DO600 in the assay with wild-type PAO1 strain (PAO1 + CCCP); 183.866 pmol/ml/DO600 and 181.531 pmol/ml/DO600 and 207.55 pmol/ml/DO600 with wild-type PAO1 strain (PAO1, no CCCP). For the same compound, the Kd at PfeA wild-type (read-out: K1, reverse titration) was 0.095 µM; at PfeA wild-type (read-out: K2, reverse titration), 4.5 µM. The “binding by ITC” value was “typical low affinity-binding curve profile; also recorded: weakened (but detectable) binding” at PfeA R480A mutant and “no binding was detected; also recorded: did not show any detectable binding” in assay [1].
